In patent US10722514B2 (FLX Bio, Inc., priority 2017, dated 2020) one finds IC50 data, which are given here for 26 molecules.

Where a name gives a salt, the structure may show the parent alone.

For the first test, the target named is T1, recombinant full-length USP7 (Homo sapiens, UniProt Q93009).
T1 construct: A 25 μl reaction volume containing recombinant full-length USP7 (62 pM)
T1 sequence (Q93009 whole entry): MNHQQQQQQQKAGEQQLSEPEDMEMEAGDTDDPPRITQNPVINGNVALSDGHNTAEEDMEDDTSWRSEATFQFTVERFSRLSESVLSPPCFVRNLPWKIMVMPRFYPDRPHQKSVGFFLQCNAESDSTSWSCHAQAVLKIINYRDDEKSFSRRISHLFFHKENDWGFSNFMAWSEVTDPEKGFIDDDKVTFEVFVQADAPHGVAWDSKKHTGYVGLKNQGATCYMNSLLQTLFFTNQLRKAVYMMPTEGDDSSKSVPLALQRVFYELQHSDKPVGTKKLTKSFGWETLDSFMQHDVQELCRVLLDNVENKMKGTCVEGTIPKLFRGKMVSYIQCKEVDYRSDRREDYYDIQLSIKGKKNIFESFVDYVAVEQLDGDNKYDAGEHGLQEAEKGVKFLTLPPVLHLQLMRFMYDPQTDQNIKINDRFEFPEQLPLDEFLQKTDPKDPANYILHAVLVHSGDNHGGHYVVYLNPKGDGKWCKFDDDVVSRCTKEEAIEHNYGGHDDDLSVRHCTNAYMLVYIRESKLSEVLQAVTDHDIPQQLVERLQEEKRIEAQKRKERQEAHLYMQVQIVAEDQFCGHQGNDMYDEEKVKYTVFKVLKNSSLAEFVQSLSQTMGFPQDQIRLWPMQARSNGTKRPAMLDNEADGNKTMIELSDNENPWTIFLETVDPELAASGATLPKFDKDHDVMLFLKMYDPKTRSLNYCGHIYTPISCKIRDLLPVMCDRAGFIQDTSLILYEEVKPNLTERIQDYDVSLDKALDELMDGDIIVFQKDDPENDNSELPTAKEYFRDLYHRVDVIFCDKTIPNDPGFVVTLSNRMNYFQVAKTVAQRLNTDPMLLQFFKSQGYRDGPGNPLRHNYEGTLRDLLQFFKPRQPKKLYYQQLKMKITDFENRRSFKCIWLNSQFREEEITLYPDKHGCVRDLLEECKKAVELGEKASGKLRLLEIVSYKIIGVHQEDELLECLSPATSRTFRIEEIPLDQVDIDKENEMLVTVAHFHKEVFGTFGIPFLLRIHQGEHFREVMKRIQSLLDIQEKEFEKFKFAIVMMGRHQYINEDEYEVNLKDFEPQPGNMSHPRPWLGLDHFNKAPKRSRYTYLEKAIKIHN
Nature of the test: USP7-mediated ubiquitin-rhodamine cleavage assay. The test is classed as biochemical. The following applies: recombinant full-length USP7 62 pM; ubiquitin-rhodamine 100 nM; 30-minute incubation with compound, 1 hour reaction at room temperature; read-out: Potency: USP7 IC50. The essentials: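 After compound and enzyme (62 pM) sat together 30 min at RT, 100 nM fluorogenic ubiquitin-rhodamine substrate was added for 1 h protected from light. Acetic acid quenched the reaction prior to the fluorescence read.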
The IC50 is the concentration at which inhibition is half-maximal. As for “3-[[7-[5-chloro-3-methyl-2-[[(3S,6S)-6-methyl-3-piperidyl]oxy]phenyl]thieno[3,2-b]pyridin-2-yl]methyl]-6,6-dimethyl-3-azabicyclo[3.1.0]hexane-2,4-dione; 2,2,2-tirfluoroacetic acid [Example 304]”, the IC50 was < 1000 nM. With `Cc1cc(Cl)cc(-c2ccnc3cc(CO)sc23)c1O[C@@H]1CCC[C@@H]1N` [Example 74, (7-(2-(((1R,2S)-2-Aminocyclopentyl)oxy)-5-chloro-3-methylphenyl)thieno[3,2-b]pyridin-2-yl)methanol], the IC50 lay in the range of 10000 to 30000 nM. Take `Cc1cc(Cl)cc(-c2ccnc3cc(CN4C(=O)CCC4=O)sc23)c1O[C@@H]1CNC[C@@H]1C(F)F` [Example 111, 1-((7-(5-Chloro-2-(((3S,4S)-4-(difluoromethyl)pyrrolidin-3-yl)oxy)-3-methylphenyl)thieno[3,2-b]pyridin-2-yl)methyl)pyrrolidine-2,5-dione]: the IC50 was < 1000 nM. `CCC(O)c1cc2nccc(-c3cc(Cl)cc(C)c3OC3CC4CC3CN4)c2s1` (centres unmarked) [Example 197, 1-(7-(2-((2-Azabicyclo[2.2.1]heptan-5-yl)oxy)-5-chloro-3-methylphenyl)thieno[3,2-b]pyridin-2-yl)propan-1-ol]: the IC50 lay within 1000 to 10000 nM. In the case of `Cc1cc(Cl)cc(-c2ncnc3cc(CN4C(=O)C5C(C4=O)C5(C)C)sc23)c1OCC1(C)CNC1` (centres unmarked) [Example 395, 3-[[4-[5-chloro-3-methyl-2-[(3-methylazetidin-3-yl)methoxy]phenyl]thieno[3,2-d]pyrimidin-6-yl]methyl]-6,6-dimethyl-3-azabicyclo[3.1.0]hexane-2,4-dione], the half-maximal inhibitory concentration (IC50) is < 1000 nM. In the case of `Cn1nc2c(c1C1Cc3cc(Cl)cc(-c4ccnc5cc(CN6C(=O)C7C(C6=O)C7(C)C)sc45)c3O1)CNCC2` [Example 387, 3-[[7-[(2R)-5-chloro-2-(2-methyl-4,5,6,7-tetrahydropyraozlo[4,3-c]pyridin-3-yl)-2,3-dihydrobenzofuran-7-yl]thieno[3,2-b]pyridin-2-yl]methyl]-6,6-dimethyl-3-azabicyclo[3.1.0]hexane-2,4-dione dihydrochloride], the IC50 is < 1000 nM. Regarding `CCOC(=O)NN(Cc1cc2nccc(-c3cc(Cl)cc(C)c3O[C@@H]3CCNC[C@@H]3C)c2s1)C(=O)OCC` [Example 402, ethyl N-[[7-[5-chloro-3-methyl-2-[[(3S,4R)-3-methyl-4-piperidyl]oxy]phenyl]thieno[3,2-b]pyridin-2-yl]methyl]-N-(ethoxycarbonylamino)carbamate], the IC50 is < 1000 nM. For `Cc1cc(Cl)cc(-c2ccnc3cc(CO)sc23)c1O[C@@H]1CC[C@@H](N)C1` [Example 90, (7-(2-(((1R,3R)-3-Aminocyclopentyl)oxy)-5-chloro-3-methylphenyl)thieno[3,2-b]pyridin-2-yl)methanol], the IC50 lay in the range of 1000 to 10000 nM.

For `Cc1cc(Cl)cc(-c2ncnc3cc(CN4C(=O)CCN(C)C4=O)sc23)c1O[C@H]1CCCNC1` [Example 252, (S)-3-((4-(5-Chloro-3-methyl-2-(piperidin-3-yloxy)phenyl)thieno[3,2-d]pyrimidin-6-yl)methyl)-1-methyldihydropyrimidine-2,4(1H,3H)-dione], the IC50 is < 1000 nM. For the molecule `Cc1cc(Cl)cc(-c2ccnc3ccsc23)c1OC1CCC(=O)NC1` (centres unmarked) [Example 198, 5-(4-Chloro-2-methyl-6-(thieno[3,2-b]pyridin-7-yl)phenoxy)piperidin-2-one], the IC50 was > 30000 nM. The same measure, in the same setting: for `Cc1cc(Cl)cc(-c2ccnc3cc(CN4C(=O)CCN(C)C4=O)sc23)c1O[C@H]1CCCNC1` [Example 162, (S)-3-((7-(5-Chloro-3-methyl-2-(piperidin-3-yloxy)phenyl)thieno[3,2-b]pyridin-2-yl)methyl)-1-methyldihydropyrimidine-2,4(1H,3H)-dione] the value was < 1000 nM. Consider `Cc1cc(Cl)cc(-c2ccnc3cc(CN4C(=O)C5C(C4=O)C5(C)C)sc23)c1O[C@@H]1CNCC[C@H]1C` (stereo partly drawn) [Example 341, 3-[[7-[5-chloro-3-methyl-2-[[(3S,4R)-4-methyl-3-piperidyl]oxy]phenyl]thieno[3,2-b]pyridin-2-yl]methyl]-6,6-dimethyl-3-azabicyclo[3.1.0]hexane-2,4-dione], for which the IC50 is < 1000 nM.

For the molecule `Cc1cc(Cl)cc(-c2ccnc3cc(CN4C(=O)CCC4=O)sc23)c1O[C@@H]1C[C@H]2CN[C@@H]1C2` [Example 298, 1-[[7-[2-[[(1S,4R,5R)-3-azabicyclo[2.2.1]heptan-5-yl]oxy]-5-chloro-3-methyl-phenyl]thieno[3,2-b]pyridin-2-yl]methyl]pyrrolidine-2,5-dione], the half-maximal inhibitory concentration (IC50) was < 1000 nM. For the molecule `Cc1cc(Cl)cc(-c2ccnc3cc(Cn4c(=O)ccn(C5CC5)c4=O)sc23)c1O[C@H]1CCCNC1` [Example 285, 3-[[7-[5-chloro-3-methyl-2-[[(3S)-3-piperidyl]oxy]phenyl]thieno[3,2-b]pyridin-2-yl]methyl]-1-cyclopropyl-pyrimidine-2,4-dione; 2,2,2-trifluoroacetic acid], the IC50 is < 1000 nM. `Cc1cc(Cl)cc(-c2ccnc3cc(CN4C(=O)C5C(C4=O)C5(C)C)sc23)c1OC1CN(C)CC1(C)F` (centres unmarked) [Example 375, 3-[[7-[5-chloro-2-(4-fluoro-1,4-dimethyl-pyrrolidin-3-yl)oxy-3-methyl-phenyl]thieno[3,2-b]pyridin-2-yl]methyl]-6,6-dimethyl-3-azabicyclo[3.1.0]hexane-2,4-dione dihydrochloride]: the IC50 was < 1000 nM.

`Cc1cc(Cl)cc(-c2ncnc3cc(CN4C(=O)C5C(C4=O)C5(C)C)sc23)c1OC1CC(N)C1` (centres unmarked) [Example 358, 3-[[4-[2-(3-aminocyclobutoxy)-5-chloro-3-methyl-phenyl]thieno[3,2-d]pyrimidin-6-yl]methyl]-6,6-dimethyl-3-azabicyclo[3.1.0]hexane-2,4-dione; 2,2,2-trifluoroacetic acid]: the IC50 was < 1000 nM.

The test is the same for the next values; noted with them: recombinant full-length USP7 62 pM; ubiquitin-rhodamine 100 nM; 30-minute incubation, 1 hour reaction at room temperature; read-out: Potency (USP7 IC50).
For `Cc1cc(Cl)cc(-c2ccnc3cc(Cn4c(=O)ccn(CC(F)(F)F)c4=O)sc23)c1OC1CC(O)C1` (centres unmarked) [Example 678, 3-[[7-[5-chloro-2-(3-hydroxycyclobutoxy)-3-methyl-phenyl]thieno[3,2-b]pyridin-2-yl]methyl]-1-(2,2,2-trifluoroethyl)pyrimidine-2,4-dione], the IC50 was < 1000 nM.

Still in this test, the particulars now being: recombinant full-length USP7 62 pM; ubiquitin-rhodamine 100 nM; 30-minute pre-incubation, 1 hour reaction at room temperature; read-out: Potency (USP7 IC50).
As for `Cc1cc(Cl)cc(-c2ccnc3cc(Cn4c(=O)ccn(C)c4=O)sc23)c1O[C@@H]1CC[C@@](C)(N)C1` [Example 518, 3-[[7-[2-[(1R,3R)-3-amino-3-methyl-cyclopentoxy]-5-chloro-3-methyl-phenyl]thieno[3,2-b]pyridin-2-yl]methyl]-1-methyl-pyrimidine-2,4-dione; 2,2,2-trifluoroacetic acid], the IC50 is < 1000 nM.

Turning to `Cc1cc(Cl)cc(-c2ccnc3cc(CN4C(=O)CCC4=O)sc23)c1OC1CCOCC1` [Example 450, 1-[[7-(5-chloro-3-methyl-2-tetrahydropyran-4-yloxy-phenyl)thieno[3,2-b]pyridin-2-yl]methyl]pyrrolidine-2,5-dione], the IC50 is < 1000 nM.

For the molecule `Cc1cc([N+](=O)[O-])cc(-c2ccnc3cc(Cn4c(=O)ccn(CC(F)(F)F)c4=O)sc23)c1Oc1ccnn1C` [Example 404, 3-[[7-[3-methyl-2-(2-methylpyrazol-3-yl)oxy-5-nitro-phenyl]thieno[3,2-b]pyridin-2-yl]methyl]-1-(2,2,2-trifluoroethyl)pyrimidine-2,4-dione; 2,2,2-trifluoroacetic acid], the half-inhibitory concentration (IC50) was < 1000 nM.

In the case of `Cc1cc(C(F)(F)F)cc(-c2ccnc3cc(Cn4c(=O)ccn(C)c4=O)sc23)c1O[C@H]1CCCNC1` [Example 445], the IC50 is < 1000 nM. Regarding `Cc1cc(Cl)cc(-c2ncnc3cc(Cn4c(=O)ccn(CC(F)(F)F)c4=O)sc23)c1OC1CC2CNC1C2` (centres unmarked) [Example 539, 3-[[4-[2-(3-azabicyclo[2.2.1]heptan-5-yloxy)-5-chloro-3-methyl-phenyl]thieno[3,2-d]pyrimidin-6-yl]methyl]-1-(2,2,2-trifluoroethyl)pyrimidine-2,4-dione], the IC50 is < 1000 nM. With `Cc1cc(Cl)cc(-c2ccnc3cc(Cn4c(=O)ccn(C)c4=O)sc23)c1O[C@H]1CCNC[C@H]1C` [Example 453], the IC50 was < 1000 nM. In the case of `Cc1cc(Cl)cc(-c2ccnc3cc(Cn4c(=O)ccn(CC(F)(F)F)c4=O)sc23)c1O[C@@H]1CN(C2CCOC2)C[C@@H]1C` (stereo partly drawn) [Example 605, 3-[[7-[5-chloro-3-methyl-2-[(3S,4S)-4-methyl-1-tetrahydrofuran-3-yl-pyrrolidin-3-yl]oxy-phenyl]thieno[3,2-b]pyridin-2-yl]methyl]-1-(2,2,2-trifluoroethyl)pyrimidine-2,4-dione], the half-inhibitory concentration (IC50) is < 1000 nM. On to `Cc1cc(Cl)cc(-c2ccnc3cc(Cn4c(=O)ccn(C)c4=O)sc23)c1O[C@@H]1CCNC[C@]1(C)F` [Example 544, 3-[[7-[5-chloro-2-[[(3S,4R)-3-fluoro-3-methyl-4-piperidyl]oxy]-3-methyl-phenyl]thieno[3,2-b]pyridin-2-yl]methyl]-1-methyl-pyrimidine-2,4-dione; 2,2,2-trifluoroacetic acid], for which the half-maximal inhibitory concentration (IC50) is < 1000 nM.

Consider `Cc1cc(Cl)cc(-c2ncnc3cc(Cn4c(=O)ccn(C(C)C)c4=O)sc23)c1O[C@@H]1CCNC[C@@H]1C` [Example 508, 3-[[4-[5-chloro-3-methyl-2-[[(3S,4R)-3-methyl-4-piperidyl]oxy]phenyl]thieno[3,2-d]pyrimidin-6-yl]methyl]-1-isopropyl-pyrimidine-2,4-dione], for which the IC50 was < 1000 nM.
